The data set is described as follows: Solubility of cannabidiol isolate in glycerol/propylene glycol/water solutions. In kind it is physicochemical. To be noted: Isolate 10 mg/mL.

Some results are limits rather than exact numbers.

`C=C(C)[C@@H]1CCC(C)=C[C@H]1c1c(O)cc(CCCCC)cc1O` [Isolate, cannabidiol]: the Soluble result by setting is: (Glycerol 36, PG 52.09, Water 11 (w/w)) “YES”; (Glycerol 36, PG 53.09, Water 10 (w/w)) “YES”. Further, for the setting “glycerol/propylene glycol/water solution, organic solvent or mixture, Glycerol 36, PG 47.09, Water 16 (w/w)”, the soluble at 10 mg/mL (yes/no) is below 10000 µg/mL.

These data come from patent publication US20240114949A1, “AEROSOLIZABLE MATERIAL” (Nicoventures Trading Limited, priority 2019, published 2024).
